This is an account of results in patent US20230144855A1, “METHODS AND COMPOSITIONS FOR INDUCING FETAL HEMOGLOBIN” (Flagship Pioneering Innovations VI, LLC, priority 2021, published 2023).

Entries after “also recorded” stand apart in the source; their conditions may differ.

What all share (type): cell-based, human
In assay [1] the test system is CD34+ hematopoietic stem and progenitor cells (HSPCs). Kind of assay: Percentage HbF by HPLC / ion-exchange chromatography in in vitro derived erythrocytes. Conditions: Day 14; HU 50 μM, Perturbagen 1081 0.1 μM; n=4-5. Here is the method: (§1) Briefly, mobilized peripheral blood (mPB), or bone marrow (BM) derived CD34+ hematopoietic stem and progenitor cells (HSPCs) were thawed and cultured in Hematopoietic stem cell expansion media (Table 7) from Day −4 to Day 0 following by 3-stage in vitro erythroid differentiation (Table 8). Specifically, cells were cultured in erythroid expansion media (phase 1) from Day 0-6, followed by differentiation media (phase 2) between Day 7-10, and culminating with incubation in erythroid maturation media (phase 3) from Day 10-18. Perturbagens reconstituted in DMSO (or appropriate solvent) were added starting at day −2 (corresponding to a stage of CD34+ hematopoietic progenitors). […] As part of the analysis, the expansion (fold growth), viability, and erythroid maturation was measured throughout the course of differentiation. Early erythroid induction was determined by flow cytometry using a six-antibody panel (CD34, CD38, CD36, CD71, CD41, CD235a) (Table 9). Similarly, late erythroid maturation was determined by flow cytometry using a four-antibody panel (Table 10) (CD71, CD235a, CD233, CD49d) tracking increased CD233 expression, with a concomitant loss of CD49d expression, and a shift in CD71^Hi to CD71^low erythroid population (CD235a+) over 18 days (FIG. 2). […]

Assay [2] shares this test system. Kind of assay: Flow cytometry assay of percentage of HbF expressing cells (F-cells) after in vitro erythroid differentiation. Here is the method:
as §1

The test system of another assay is mPB CD34+ cells. Kind of assay: scRNA-seq of CD34+ cells treated with HbF inducers (trajectories, gene signatures). The conditions noted are these: for Pseudo-trajectory associated with high levels of HBG1/HBG2 expression: Leiden clustering / gene module analysis of HbF inducers. Here is the method:
To understand the mechanism/cell behavior driving fetal hemoglobin induction, a number of known HbF inducers were evaluated and their signature was elucidated by scRNA-seq. In brief, mPB CD34+ cells were thawed, cultured and treated with selected HbF inducers (Table 11) as described in Example 2 and subjected to single cell gene expression profiling (GEP) at 5 time points capturing the induction of erythroid differentiation from a hematopoietic stem cell progenitor. For sequencing, 10,000 cells (1000 cells/perturbation) were loaded into a single channel of a Chromium Next GEM Chip G and partitioned into droplets with gel beads using a Chromium controller per time point. After emulsion droplets were formed and collected, reverse transcription reactions were incubated at 53° C. for 45 min.
A dimensionality-reduced representation of the count matrix was embedded using UMAP, clustered using Leiden clustering and annotated using differential expression testing (Wilcoxon test) and comparisons to established marker genes. […] Based on these two trajectories, distinct signatures were generated for each transition and a list predictions were made towards each cell state.
Based on the unique/novel cell state (CD34+/CD41^Low+/CD235a+) induced by HU treatment of human hematopoietic stem cell progenitors Applicant postulated that this cell state was reminiscent/analogous to a stress erythropoiesis cell state previously defined in mice but not well characterized in human. […] To evaluate whether HU was inducing a stress erythropoiesis cells state and whether this cell state was responsive to glucocorticoids, the effect of dexamethasone (Dex) was evaluated in the context of HU treatment.
Perturbagen 1081 induced predicted gene signature associated with fetal hemoglobin induction. […] Adult human CD34+ progenitors were treated with Perturbagen 1081 and other known HbF inducers and subjected to scRNA-seq. […] Analysis of Perturbagen 1081 induced gene signature validated the fetal erythropoiesis signature predicted using a computational predictive models (FIG. 16C).

For another assay, the system named is CD34+ HSPCs. Kind of assay: Flow cytometry of the CD34+/CD41Low+/CD235a+ cell state. The conditions noted are these: HU 50 uM, day 3 mPB CD34+. Here is the method: Therefore, in this example, CD34+ HSPCs are cultured 4 days in stem cell maintenance media (days −4 through 0) then switched to the three phases of erythroid differentiation media. Phase 1, erythroid expansion media (days 0 through 6), Phase 2 erythroid differentiation media (days 7 through 10) and Phase 3 erythroid maturation media (days 10 through 18).

Regarding `NC(=O)NO` [HU, hydroxyurea], the “HbF induced, HPLC analysis of in vitro derived erythrocytes” value in assay [1] was 17.16%+4.78. Further, the “Number of F-cells with HU treatment” value in assay [2] (HU 50 uM on CD34+ HSPCs before erythroid differentiation) is listed as “increased number of F-cells”. Also, the “Pseudo-trajectory associated with high levels of HBG1/HBG2 expression” value in the assay on mPB CD34+ cells is reported as “HU-HbF trajectory”. For the same molecule, in the assay with mPB CD34+ cells (scRNA-seq of HU and HU+Dex conditions), the “Expression of the glucocorticoid receptor (NR3C1)” value is listed as “increases the expression of the glucocorticoid receptor (NR3C1); also recorded: induction of NR3C1”. The “CD34+/CD41Low+/CD235a+ cell state” value in the assay with CD34+ HSPCs is on record as “a novel cell state defined by CD34+/CD41^Low+/CD235a+(FIG. 6A) was observed; also recorded: emergence of a cell population defined by CD34+CD41lowCD235a+ expression”.

On to `Cc1ccc2c(NC[C@](O)(CC(C)(C)c3cc(F)cc4c3OCC4)C(F)(F)F)cccc2n1` [Mapracorat], for which the “F-cell data, glucocorticoid agonist combined with HU (absolute change, fold change)” value in assay [2] (combination with HU) is listed as “synergy with HU”.

Turning to `Nc1cccc2c1C(=O)N(C1CCC(=O)NC1=O)C2=O` (stereo not shown) [Pomalidomine], the “Pseudo-trajectory associated with high levels of HBG1/HBG2 expression” value in the assay with mPB CD34+ cells was “canonical-HbF trajectory”.
